Test results published in the SangsterLogP compilation.

Assays:
[1] = method code SF, from DOI: 10.1016/j.ejps.2016.06.024, PMID: 27373604; settings: pH 7.4
[2] = method code SF-GLC, from Jha, T.; Debnath, A.; Mazumdar, A.; Sengupta, C.; De, A. (1986). Hansch analysis of antineoplastic agents, 5-N-substituted-2-p-substituted benzenesulfonyl-L-glutamines. Ind. J. Chem., Sect. B, …
[3] = method code SF-RC, from DOI: 10.1016/s0969-8051(01)00199-8, PMID: 11395310; settings: pH 7.4
[4] = method code SF-NMR, from DOI: 10.1016/j.jpba.2012.12.010, PMID: 23298914; settings: pH 7.6
[5] = method code SF, from DOI: 10.1016/j.ejmech.2012.08.015, PMID: 22960698
[6] = method code SF-AS/IM, from DOI: 10.1002/jps.2600661205, PMID: 925928
[7] = method code SF-HPLC, from DOI: 10.1016/s0021-9673(99)01336-9, PMID: 10757301
[8] = method code SF-HPLC, from DOI: 10.1248/cpb.32.1929; settings: pH 7.2
[9] = not given; remark: listed apart in the source
[10] = not given; remark: listed apart in the source
[11] = method code SF-AS, from DOI: 10.1016/j.ejmech.2010.07.027, PMID: 20705371
[12] = not given; remark: listed apart in the source
[13] = method code SF-AS, from Thiel, W. (1998). Structure and physicochemical properties of retigabine. Pharmazie, 53(12)865-868.; settings: pH 7.4
[14] = method code SF-AS, from DOI: 10.1128/aac.27.1.84, PMID: 2580479
[15] = method code SF-RC, from DOI: 10.1016/j.nucmedbio.2011.12.002, PMID: 22321533
[16] = method code SF-AS, from Galdino, S.; Pitta, I.; Luc-Duc, C. (1986). 5-Benzylidene pyrrolones, furanones and thiopenones. II. Quantitative structure-antifungal correlation. Farmaco [Sci], 41(1)59-68.
[17] = method code SF-AS, from DOI: 10.1021/js960093b, PMID: 8897274; settings: pH 7.4
[18] = not given; remark: listed apart in the source
[19] = method code SF, from DOI: 10.1021/jm061062o.s001, PMID: 17326614; settings: pH 7.4
[20] = method code SF, from DOI: 10.1016/j.ijpharm.2011.07.043, PMID: 21839822; settings: pH 7.4
[21] = not given; remark: listed apart in the source
[22] = method code SF-ILT, from DOI: 10.1002/ardp.19763091008, PMID: 1008678
[23] = method code SF, from Tomlin, C. (2000). The Pesticide Manual (12th Edition) British Crop Protection Council, Bracknell.
[24] = not given; remark: listed apart in the source
[25] = method code SF-HPLC, from DOI: 10.1023/a:1007514121527, PMID: 10714601; settings: pH 7.4
[26] = method code SF-AS, from PMID: 17401091; settings: pH 7.4
[27] = not given; remark: listed apart in the source
[28] = not given; remark: listed apart in the source
[29] = method code SF-RC, from DOI: 10.1016/j.bmc.2013.04.077, PMID: 23712084; settings: pH 7.4
[30] = method code SF, from DOI: 10.1016/s0006-3495(89)82875-9, PMID: 2470429; settings: pH 7.3
[31] = method code SF, from DOI: 10.1016/s0223-5234(03)00044-8, PMID: 12750026; settings: pH 7.4
[32] = method code SF-AS, from DOI: 10.1081/jlc-100100410; settings: pH 4.0
[33] = method code SF-HPLC, from DOI: 10.1023/a:1013643013244, PMID: 11837695; settings: pH 6.4
[34] = method code SF-RC, from DOI: 10.1021/acs.jmedchem.6b00849, PMID: 27690428; settings: pH 7.4
[35] = not given; remark: listed apart in the source
[36] = method code SF-AS, from DOI: 10.1016/s0022-3565(25)32601-7, PMID: 7194909
[37] = not given; remark: listed apart in the source
[38] = method code SF-FL, from DOI: 10.1248/cpb.27.638, PMID: 554741
[39] = not given; remark: listed apart in the source
[40] = method code SF-AS, from DOI: 10.3109/00498258909043190, PMID: 2618089; settings: pH 10.8
[41] = method code SF-HPLC, from DOI: 10.1021/jm300631e, PMID: 22734650; settings: pH 7.4
[42] = method code SF-AS, from DOI: 10.1007/bf00500291, PMID: 4270072; settings: pH 7.4
[43] = method code SF-FL, from DOI: 10.1002/jps.2600810104, PMID: 1352350

NC(=O)C1c2ccccc2CCc2ccccc21
logD [1]: 1.67

CCCNC(=O)CCC(NS(=O)(=O)c1ccc(C)cc1)C(=O)O (centres undefined)
logP [2]: 0.13

Cc1nc(N)nc(N)c1C12CC3CC(CC(C3)C1)C2
logP: 2.64

CCN1CCC[C@H]1CNC(=O)c1c(OC)ccc(I)c1O
logD [3]: 2.85

COC(=O)C(N)Cc1cc(I)c(Oc2ccc(O)c(I)c2)c(I)c1 (centres undefined)
logD [4]: 2.6

O=C(CC1OC(=O)c2ccccc21)c1ccc(Cl)c(Cl)c1 (centres undefined)
logP [5]: 4.24

CC1(C)S[C@@H]2[C@H](NC(=O)COc3ccccc3)C(=O)N2[C@H]1C(=O)O
logP [6]: 1.95

CO/N=C(\C(=O)N[C@@H]1C(=O)N2C(C(=O)O)=C(COC(N)=O)CS[C@H]12)c1ccco1
logP [7]: -0.17

COC(COC(N)=O)C1=C(N2CC2)C(=O)C(C)=C(N2CC2)C1=O (centres undefined)
logD [8]: 0

c1cc2ccc1CCc1ccc(cc1)CC2
logP [9]: 4.61

Cc1ccc2oc(-c3ccccc3C(=O)O)c(Br)c2c1
logP [10]: 5.19

CC(C)(C)c1ccc(O)c(CN2CCOCC2)c1
logP [11]: 1.96

CCOP(=S)(NC(C)C)Oc1ccccc1C(=O)OC(C)C (centres undefined)
logP [12]: 3.7

CCOC(=O)Nc1ccc(NCc2ccc(F)cc2)cc1N
logD [13]: 2.17

CO[C@@]1(NC(=O)CSCC#N)C(=O)N2C(C(=O)O)=C(CSc3nnnn3C)CS[C@@H]21
logP [14]: -0.6

Cc1cn(C2CC(O)C(CO)O2)c(=O)n(Cc2cn(CCF)nn2)c1=O (centres undefined)
logP [15]: -1.22

CCOC(=O)C1=C(C)O/C(=C\c2ccc(OC)cc2)C1=O
logP [16]: 2.96

N#CN=C1NC(=O)C(c2ccccc2)(c2ccccc2)N1
logD [17]: 1.16

CN(C)Cc1ccccc1Sc1ccc(I)cc1CO
logP [18]: 2.67

CS(=O)(=O)CCN(CCBr)c1cc(C(=O)NCC(O)CO)c([N+](=O)[O-])cc1[N+](=O)[O-] (centres undefined)
logD [19]: -0.05

CCCCCCCCNC(=O)c1ccccc1O
logD [20]: 3.7

O=C(O)Cc1ccc2c(c1O)C(=O)c1c(O)cccc1C2
logP [21]: 3.1

CCNC(=O)C1C2C=CC(C2)C1C(=O)N(CC)CC (centres undefined)
logP [22]: 0.99

COCC(=O)N(c1c(C)cccc1C)C(C)C(=O)OC (racemic)
logP [23]: 1.75

CCc1cccc(C)c1N(C(=O)CCl)C(C)COC (centres undefined)
logP [24]: 3.09

COc1cc2oc(=O)cc(CC(NC(C)=O)C(N)=O)c2cc1OC (centres undefined)
logD [25]: -0.13

CN(C)c1ncc(C=Cc2nc3ccc(OCCF)cc3o2)s1
logD [26]: 1.75

CC(C)(C)C(O)[C@H](Cc1ccc(Cl)cc1)n1cncn1 (stereo in doubt)
logP [27]: 3.26

O=C(O)Cc1ccc2c(c1)C(=O)c1ccccc1CS2
logP [28]: 2.97

O=C(NCCCCCF)Oc1cccc(C2=NCCO2)c1
logD [29]: 2.33

COC(=O)C1=C(C)NC(C)=C([N+](=O)[O-])C1c1ccccc1C(F)(F)F (centres undefined)
logD [30]: 2.46

CNC(=O)Oc1ccc2c(c1)C1(C)CCN(C)C1N2C (centres undefined)
logD [31]: 0.97

CC(C)Oc1ccc(C(=O)NS(=O)(=O)c2ccc(N)cc2)cc1
logD [32]: 1.21

CCCN1C(=O)CCC(N2C(=O)c3ccccc3C2=O)C1=O (centres undefined)
logD [33]: 2.11

N#Cc1ccc(N(Cc2ccc(I)cc2)n2cnnc2)cc1
logD [34]: 2.48

CCN1C=CC(=C2C(=O)c3ccc(Cl)cc3C2=O)C=C1
logP [35]: 2.76

OC1(c2ccc(Cl)cc2)c2ccccc2C2=NCCN21 (centres undefined)
logP [36]: 1.81

COc1ccc2c(c1)OCC2NC(=O)CN1CCCC1 (centres undefined)
logP [37]: 1.92

c1ccc(Nc2cccc3ccccc23)cc1
logP [38]: 4.2

COc1ccc(C(=O)NNC(=O)c2ccc(OC)cc2)cc1
logP [39]: 1.55

O=C(Cn1c(=O)sc2ccc(Cl)cc21)N1CCN(CCO)CC1
logD [40]: 1.04

C=CCC1(c2cccc(C3(C(F)(F)F)N=N3)c2)C(=O)NC(=O)N(C)C1=O (centres undefined)
logD [41]: 3.79

CN1C(=O)CN=C(C2=CCCCC2)c2cc(Cl)ccc21
logD [42]: 2.76

CN1CCN=C(c2ccccc2)c2cc(Cl)ccc21
logP [43]: 3.3
